Consider six molecules from US7902144B2, “Therapeutic and diagnostic ligand systems comprising transport molecule binding properties and medicaments containing the same” (KTB Tumorforschungsgesellschaft mbH, priority 2000, dated 2011).

Assay [1] addresses T1, human serum albumin (HSA) (Homo sapiens, UniProt P02768).
T1 construct: purchased Dessau company, Germany
The assay is described as follows: Binding constant relative to HSA as stated in text. From the text:
Thus BC-DOX1, after being brought into contact with HSA or after injection into the bloodstream, is tightly bound to that blood protein. Since BC-DOX1 in addition has a sulfonylhydrazone bond as an acid-labile bond between the carrier-molecule-affinitive substance and the cytostatic agent, in the acid environment of tumor tissue or in the acid intracellular compartments of the tumor cell, doxorubicin is released as the active substance so it can exert its therapeutic effect there.

The target in a further assay is HSA (Homo sapiens, UniProt P02768). The assay is described as follows: Incubation with HSA followed by size-exclusion chromatography (Sephadex G-25). It counts as binding. The conditions noted are these: incubation of only a few seconds with HSA (or blood plasma), mole ratio 1:1, Sephadex G-25. For orientation: SEC sorts molecules by how far they enter the pores of the column.

For the next assay, the target named is transferrin (Homo sapiens, UniProt P02787). As to the kind of experiment: Incubation with transferrin followed by size-exclusion chromatography (Sephadex G-25). It counts as binding.
Assay [2] has as its target T1, human serum albumin (HSA). The assay is described as follows: Binding constants relative to HSA by equilibrium dialysis (Scatchard plot). The conditions noted are these: pH 7.4, Scatchard plot. From the text: A Scatchard plot is used to determine the binding constants relative to human serum albumin (HSA from the Dessau company, Germany) at pH 7.4 by means of equilibrium dialysis (equilibrium dialyzer from Spectrum, Inc., USA; dialysis membrane: cut-off MW 10000) for the prepared doxorubicin derivatives, all including an acid-labile hydrazone bond as the predetermined breaking point, and for doxorubicin.
Background: In equilibrium dialysis free small molecules cross a membrane that holds back macromolecules.

The target in assay [3] is T1, human serum albumin (HSA). The conditions noted are these: Literature value (Demant et al., Biochemical Pharmacology 55, 27-32, 1998); cited from earlier work.

Molecules are shown by their SMILES.

T1 sequence (P02768 25-609): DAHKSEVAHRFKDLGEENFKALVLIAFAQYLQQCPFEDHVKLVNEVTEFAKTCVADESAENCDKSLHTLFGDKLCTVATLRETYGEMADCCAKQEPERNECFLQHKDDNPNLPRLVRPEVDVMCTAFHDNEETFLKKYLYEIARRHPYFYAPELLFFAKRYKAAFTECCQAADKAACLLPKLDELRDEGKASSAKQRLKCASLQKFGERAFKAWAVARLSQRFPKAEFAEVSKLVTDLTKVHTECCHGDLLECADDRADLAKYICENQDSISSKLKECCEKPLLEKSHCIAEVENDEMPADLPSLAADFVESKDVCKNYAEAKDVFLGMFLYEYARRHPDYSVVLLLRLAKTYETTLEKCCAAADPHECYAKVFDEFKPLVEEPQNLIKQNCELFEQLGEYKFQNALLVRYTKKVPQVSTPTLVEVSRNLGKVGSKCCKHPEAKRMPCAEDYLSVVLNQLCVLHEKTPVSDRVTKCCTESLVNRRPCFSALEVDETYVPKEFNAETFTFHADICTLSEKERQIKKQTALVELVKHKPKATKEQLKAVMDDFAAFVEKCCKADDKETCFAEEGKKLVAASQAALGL
Chain of HSA (P02768 25-609): as above
Chain of transferrin (P02787 20-698, species assumed): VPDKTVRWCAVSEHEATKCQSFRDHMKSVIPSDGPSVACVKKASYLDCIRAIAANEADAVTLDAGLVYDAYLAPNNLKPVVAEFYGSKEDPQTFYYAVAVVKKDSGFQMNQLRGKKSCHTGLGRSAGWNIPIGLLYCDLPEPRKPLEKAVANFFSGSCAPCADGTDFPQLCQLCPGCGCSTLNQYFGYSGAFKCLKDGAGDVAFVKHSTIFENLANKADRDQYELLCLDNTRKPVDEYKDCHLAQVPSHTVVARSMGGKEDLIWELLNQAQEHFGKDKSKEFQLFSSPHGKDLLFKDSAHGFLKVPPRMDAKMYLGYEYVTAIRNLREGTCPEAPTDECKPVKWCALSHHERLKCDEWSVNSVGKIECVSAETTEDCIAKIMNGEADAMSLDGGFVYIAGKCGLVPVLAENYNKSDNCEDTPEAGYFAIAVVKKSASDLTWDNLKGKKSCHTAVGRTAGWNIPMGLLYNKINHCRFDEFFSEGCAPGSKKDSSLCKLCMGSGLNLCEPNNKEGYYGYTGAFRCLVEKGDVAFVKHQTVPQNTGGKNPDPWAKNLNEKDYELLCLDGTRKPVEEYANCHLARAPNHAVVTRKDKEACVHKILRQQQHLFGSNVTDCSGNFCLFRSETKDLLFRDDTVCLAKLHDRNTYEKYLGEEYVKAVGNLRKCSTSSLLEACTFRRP

Take `COc1cccc2c1C(=O)c1c(O)c3c(c(O)c1C2=O)C[C@@](O)(/C(CO)=N/NS(=O)(=O)c1ccccc1/C(=C1/C=C(Br)C(=O)C(Br)=C1C)c1cc(Br)c(O)c(Br)c1C)C[C@@H]3O[C@H]1CC(N)[C@H](O)C(C)O1` (stereo partly drawn) [BC-DOX1]: the “binding constant relative to human serum albumin compared with free doxorubicin” value in assay [1] is given as “several orders of magnitude greater”. Moreover, the “behavior in size-exclusion chromatography after incubation with HSA” value on HSA is “behavior like that of bromcresol green or bromcresol green sulfonic acid”.

On to `Cc1c(C2(c3cc(Br)c(O)c(Br)c3C)OS(=O)(=O)c3ccccc32)cc(Br)c(O)c1Br` [Bromcresol green, reference compound], for which, at HSA, the “behavior in size-exclusion chromatography after incubation with HSA” value was “elute together with HSA”. Further, the “affinity for other plasma proteins” value at transferrin is “do not exhibit high affinity”. With `COc1cccc2c1C(=O)c1c(O)c3c(c(O)c1C2=O)C[C@](O)(/C(CO)=N/NC(=O)CCOCCOCCOCCOCCOCCOCCNS(=O)(=O)c1ccc2c(N=Nc4ccccc4)c(O)ccc2c1)C[C@@H]3O[C@H]1CC(N)[C@H](O)C(C)O1` (stereo partly drawn) [DOXO-CROC-HEXA], the “KA relative to HSA” value in assay [2] is recorded as 7.2 × 10^7. On to `CCCCCCCCCCCCCCCCCC(=O)N/N=C(\CO)[C@@]1(O)Cc2c(O)c3c(c(O)c2[C@@H](O[C@H]2CC(N)[C@H](O)C(C)O2)C1)C(=O)c1c(OC)cccc1C3=O` (stereo partly drawn) [DOXO-SAH], for which the “KA relative to HSA” value in assay [2] is reported as 6.1 × 10^6. For `COc1cccc2c1C(=O)c1c(O)c3c(c(O)c1C2=O)C[C@](O)(/C(CO)=N/NC(=O)CCOCCOCCOCCOCCOCCOCCNC(=O)c1cc(I)cc(I)c1I)C[C@H]3O[C@H]1CC(N)[C@H](O)C(C)O1` (stereo partly drawn) [DOXO-TIB-HEXA], the “KA relative to HSA” value in assay [2] is 5.5 × 10^5.

For the molecule `COc1cccc2c1C(=O)c1c(O)c3c(c(O)c1C2=O)C[C@@](O)(C(=O)CO)C[C@@H]3O[C@H]1C[C@H](N)[C@H](O)[C@H](C)O1` [Doxorubicin, doxorubicin, reference compound], the “KA relative to HSA” value in assay [2] was 2.9 × 10^3. The “KA relative to HSA, literature value” in assay [3] was 2.7 × 10^3.
